What was measured:
COX2 [1] = assay: Test 3: COX2 expression after oxidative insult (previous test repeated, 3 hours and 24 hours); format: cell-based, human
Procedure: (§1) Tests on the capacity of the indicated preparations to prevent oxidative damage, induced in dermal tissue cells, were conducted on human fibroblasts which were isolated then cultivated in a suitable culture medium. Oxidative stress was induced by adding a mixture of 40 mM xanthine and 2 mM hypoxanthine to the culture medium, a mixture with known ability to induce formation of Reactive Oxygen Species (ROS), agents which cause cell damage up to necrosis. The preparations under examination could be added, or not, to the broth at the same time as the xanthine/hypoxanthine mixture. The contact time between the xanthine/hypoxanthine mixture and the preparations was 2 hours, at the end of which the cells were transplanted into a fresh culture medium, i.e. containing neither the stress-inducing mixture nor the substance, then allowed to quiesce for periods of 3 or 24 hours. At the end of the stated period, gene expression of the prostaglandin G/H synthase and cyclooxygenase2 (COX2) enzyme was detected which is indicative of the inflammatory state induced in cells by oxidative stress.

COX2 [2] = assay: Test 2: COX2 expression in human fibroblasts after xanthine/hypoxanthine oxidative stress; format: cell-based; conditions: 24 hours after oxidative stress, insulted human fibroblasts
Procedure: as §1
Expression of COX2 (normalized fluorescence units vs housekeeping gene 18s rRNA) 24 hours after oxidative stress, in “insulted” cells in the presence of curcumin, curcumin complexed with Zn and FDP used separately, and in the presence of the ternary system.

SMILES: O=P(O)(O)OC[C@H]1O[C@@](O)(COP(=O)(O)O)[C@@H](O)[C@@H]1O [FDP, Fructose 1-6 diphosphate]
- COX2 expression after oxidative insult (COX2 [1]; 5 mM, 3 hours): 7.87 normalized fluorescence units vs housekeeping gene 18s rRNA
- COX2 expression after oxidative insult (COX2 [1]; 5 mM, 24 hours): 7.14 normalized fluorescence units vs housekeeping gene 18s rRNA
- COX2 expression after oxidative insult (COX2 [1]; 10 mM, 3 hours): 6.90 normalized fluorescence units vs housekeeping gene 18s rRNA
- COX2 expression after oxidative insult (COX2 [1]; 10 mM, 24 hours): 6.45 normalized fluorescence units vs housekeeping gene 18s rRNA
- Expression of COX2 (COX2 [2]; 5 mM): 7.14 normalized fluorescence units vs housekeeping gene 18s rRNA

SMILES: C[C@H]1[C@H](C)CC[C@]2(C)CC[C@]3(C)C(=CC[C@@H]4[C@@]5(C)CC[C@@H](O)[C@](C)(C(=O)O)[C@@H]5CC[C@]43C)[C@H]12 [boswellic acid]
- COX2 expression after oxidative insult (COX2 [1]; 100 μM, 3 hours): 7.80 normalized fluorescence units vs housekeeping gene 18s rRNA
- COX2 expression after oxidative insult (COX2 [1]; 100 μM, 24 hours): 8.00 normalized fluorescence units vs housekeeping gene 18s rRNA
- COX2 expression after oxidative insult (COX2 [1]; 300 μM, 3 hours): 8.10 normalized fluorescence units vs housekeeping gene 18s rRNA
- COX2 expression after oxidative insult (COX2 [1]; 300 μM, 24 hours): 8.90 normalized fluorescence units vs housekeeping gene 18s rRNA

SMILES: COc1cc(/C=C/C(=O)CC(=O)/C=C/c2ccc(O)c(OC)c2)ccc1O [curcumin, Curcumin]
- COX2 expression after oxidative insult (COX2 [1]; 3 μM, 3 hours): 5.76 normalized fluorescence units vs housekeeping gene 18s rRNA
- COX2 expression after oxidative insult (COX2 [1]; 3 μM, 24 hours): 5.00 normalized fluorescence units vs housekeeping gene 18s rRNA
- COX2 expression after oxidative insult (COX2 [1]; 6 μM, 3 hours): 5.45 normalized fluorescence units vs housekeeping gene 18s rRNA
- COX2 expression after oxidative insult (COX2 [1]; 6 μM, 24 hours): 4.90 normalized fluorescence units vs housekeeping gene 18s rRNA
- COX2 expression after oxidative insult (COX2 [1]; 9 μM, 3 hours): 5.10 normalized fluorescence units vs housekeeping gene 18s rRNA
- COX2 expression after oxidative insult (COX2 [1]; 9 μM, 24 hours): 4.78 normalized fluorescence units vs housekeeping gene 18s rRNA
- Expression of COX2 (COX2 [2]; 3 μM): 5.00 normalized fluorescence units vs housekeeping gene 18s rRNA
- Expression of COX2 (COX2 [2]; 6 μM): 4.90 normalized fluorescence units vs housekeeping gene 18s rRNA
